These results are taken from patent publication US11160797B2, “Pyridinone derivatives and their use as selective ALK-2 inhibitors” (NOVARTIS AG, priority 2017, dated 2021).

What is called IC50 is the concentration that gives 50% inhibition.

Experiment [1] concerns the target T1, wild-type ALK2 (aa172-499) (Homo sapiens (Human), UniProt Q04771). Put plainly: ADPGlo biochemical autophosphorylation assay, ALK2. The following applies: 15 uM ATP. In general terms: ADP-Glo first removes unused ATP, then detects ADP through luciferase.
The next experiment has as its target ALK3 (aa198-525) (Homo sapiens (Human), UniProt P36894). Nature of the experiment: ADPGlo biochemical autophosphorylation assay, ALK3. The following applies: 15 uM ATP.
Experiment [2] deals with T1, wild-type ALK2 (aa172-499). Put plainly: Caliper biochemical peptide phosphorylation assay, ALK2. Particulars: Caliper peptide phosphorylation, 15 uM ATP; read-out: ALK2 IC50.
Experiment [3] concerns the target ALK2 FOP mutant (aa172-499 R206H) (Homo sapiens (Human), UniProt Q04771, R206H). Put plainly: Caliper biochemical peptide phosphorylation assay, ALK2 FOP. Particulars: Caliper peptide phosphorylation, R206H, 15 uM ATP; read-out: ALK2 FOP EPK IC50.
The target in the next experiment is ALK1 (aa166-493) (Homo sapiens (Human), UniProt P37023). Put plainly: Caliper biochemical peptide phosphorylation assay, ALK1. The following applies: 15 uM ATP.
A further experiment deals with ALK5 (aa162-503) (Homo sapiens (Human), UniProt P36897). Put plainly: Caliper biochemical peptide phosphorylation assay, ALK5. The following applies: 15 uM ATP. The text has this:
For all biochemical assays, human recombinant proteins were expressed in and purified from baculo virus transfected insect cells. The constructs comprised the GS-domain and kinase domain of wild-type ALK2 (aa172-499), ALK2 FOP mutant (aa172-499 R206H), ALK3 (aa198-525), ALK5 (aa162-503) and ALK6 (aa168-495).
A kinase selectivity panel which measures substrate peptide phosphorylation was set-up for wild-type ALK2 (aa172-499), ALK2 FOP mutant (aa172-499 R206H), ALK1 (aa166-493), ALK5 (aa162-503) and ALK6 (aa168-495). The technology used for the described assay is based on the separation and quantification of substrate and product in an electrical field. In the course of the kinase reaction the peptide substrate is phosphorylated by a kinase. […] Due to this difference in charge the phosphorylated und unphosphorylated peptides migrate with different velocities in an electrical field.
In the applied method, this separation takes place inside a chip that contains a complex capillary system for simultaneous analysis of 12 samples (“LabChip EZ Reader 12-sipper chip”, Caliper Technologies Corp., Mountain View, USA). In order to allow the detection and quantification of the peptides in the capillary system, the peptides carry a fluorescent label (fluorescein). With this label the peptides can be quantified by fluorescence intensity through the instruments laser and detection system (LC3000, Caliper Life Sciences).
The assays were performed in 384-well, low volume microtiter assay plates in a final reaction volume of 9 ul. Dose-response curves were generated by incubating 10 nM of each kinase together with 2 uM of the fluorescently labeled substrate peptide 5-Fluo-Ahx-[…]-T-[…]-amid (10 mM stock solution in DMSO) in 50 mM Hepes pH 7.5, 0.02% Tween 20, 0.02% BSA, 1 mM DTT, 10 uM Na3VO4, 10 mM ß-Glycerolphosphate, 1 mM MgCl2, 12 mM MnCl2 (ALK1 and ALK6 7 mM) and 15 uM ATP for 60 min at 30° C. in the presence or absence of compound diluted in DMSO.
Kinase reactions were terminated by adding 15 ul STOP buffer (100 mM HEPES pH 7.5, 5% DMSO, 0.1% Caliper coating reagent, 10 mM EDTA, and 0.015% Brij35.
Plates with terminated kinase reactions were transferred to the Caliper LC3000 workstation (Caliper Technologies Corp., Mountain View, USA) for reading. The relative amount of phosphorylated peptide r, was calculated using the heights of the substrate peak, s, and the product peak, p:r=p/(p+s).
IC50 values for a given antagonist correspond to the compound concentration needed to inhibit half of the maximum signal of the kinase reaction.

The target of the next experiment is ALK6 (aa168-495) (Homo sapiens (Human), UniProt O00238). Nature of the experiment: Caliper biochemical peptide phosphorylation assay, ALK6. Particulars: 15 uM ATP.
Experiment [4] has as its system HuH7 cells, BMP response element (BRE) luciferase reporter, BMP6 stimulated. Nature of the experiment: BMP signaling reporter gene assay. Particulars: Homo sapiens, Huh-7; BMP6 100 ng/ml; read-out: MSD HuH7 cell BMP reporter IC50. It is filed as cell-based. For orientation: Reporter assays use an easily measured gene product as a stand-in for the process of interest.
Procedure: A human liver hepatocellular carcinoma cell line (HuH7) stably transfected with a reporter plasmid consisting of the human BMP response element (BRE) from the Id1 promoter fused to a luciferase reporter gene was generated through lentiviral transduction.
Assays were performed in 384-well flat bottom polystyrene microtiter plates (cell culture treated) with sterile lids. The cells were starved through medium exchange in Blasticidine- and FCS-free medium 16 h before the assay. Prior to the assay, cells were detached from the stock flask using trypsin/EDTA and counted. A cell suspension in the same medium without Blasticidin and FCS was prepared. 2×10^4 cells in a total volume of 40 ul were added to each well of a plate already containing serial dilutions of each compound in DMSO (final DMSO concentration 0.5%). […] Assay plates are incubated for another 5 hours at 37° C., 5% CO2 before luciferase levels are measured.
The amount of expressed luciferase is quantified using the Steady-Glo® Luciferase Assay System (Promega #E2520).

Chain of ALK6 (aa168-495) (O00238 168-495): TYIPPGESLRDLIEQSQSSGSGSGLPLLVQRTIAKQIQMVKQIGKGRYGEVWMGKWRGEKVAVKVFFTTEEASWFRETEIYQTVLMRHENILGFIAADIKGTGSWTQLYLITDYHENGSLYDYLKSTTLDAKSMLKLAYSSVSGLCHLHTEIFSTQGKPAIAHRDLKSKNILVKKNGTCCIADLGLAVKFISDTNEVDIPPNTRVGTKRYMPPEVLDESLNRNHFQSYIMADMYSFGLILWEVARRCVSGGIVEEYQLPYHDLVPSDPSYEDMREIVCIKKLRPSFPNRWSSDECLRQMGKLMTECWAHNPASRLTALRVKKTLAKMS
T1 sequence (Q04771 172-499): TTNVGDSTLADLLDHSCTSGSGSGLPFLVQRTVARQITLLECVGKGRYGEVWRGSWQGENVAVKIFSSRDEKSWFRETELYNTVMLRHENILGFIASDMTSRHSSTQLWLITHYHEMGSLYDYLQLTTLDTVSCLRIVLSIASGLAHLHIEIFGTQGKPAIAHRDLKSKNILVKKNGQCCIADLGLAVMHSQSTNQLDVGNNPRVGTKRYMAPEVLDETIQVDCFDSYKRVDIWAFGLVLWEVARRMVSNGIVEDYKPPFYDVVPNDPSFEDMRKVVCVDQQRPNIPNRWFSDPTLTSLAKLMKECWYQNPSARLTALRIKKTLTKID
Chain of ALK3 (aa198-525) (P36894 198-525): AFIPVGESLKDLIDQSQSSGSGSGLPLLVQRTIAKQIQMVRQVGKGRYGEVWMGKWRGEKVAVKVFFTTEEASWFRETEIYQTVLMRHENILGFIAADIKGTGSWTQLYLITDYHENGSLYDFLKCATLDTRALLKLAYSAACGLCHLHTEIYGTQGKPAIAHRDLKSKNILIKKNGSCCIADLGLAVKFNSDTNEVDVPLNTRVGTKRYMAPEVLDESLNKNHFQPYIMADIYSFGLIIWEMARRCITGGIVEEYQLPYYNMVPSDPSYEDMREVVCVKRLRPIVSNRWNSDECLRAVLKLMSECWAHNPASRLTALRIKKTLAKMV
Chain of ALK5 (aa162-503) (P36897 162-503): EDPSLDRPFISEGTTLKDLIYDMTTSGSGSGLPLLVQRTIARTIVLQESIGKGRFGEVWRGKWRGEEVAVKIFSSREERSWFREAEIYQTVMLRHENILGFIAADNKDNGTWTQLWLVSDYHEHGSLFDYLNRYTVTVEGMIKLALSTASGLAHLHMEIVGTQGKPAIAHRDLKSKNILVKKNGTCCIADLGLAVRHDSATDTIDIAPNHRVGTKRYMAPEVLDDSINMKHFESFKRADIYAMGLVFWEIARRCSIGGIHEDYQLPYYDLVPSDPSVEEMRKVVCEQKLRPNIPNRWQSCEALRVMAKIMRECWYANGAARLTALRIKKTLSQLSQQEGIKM
Chain of ALK1 (aa166-493) (P37023 166-493): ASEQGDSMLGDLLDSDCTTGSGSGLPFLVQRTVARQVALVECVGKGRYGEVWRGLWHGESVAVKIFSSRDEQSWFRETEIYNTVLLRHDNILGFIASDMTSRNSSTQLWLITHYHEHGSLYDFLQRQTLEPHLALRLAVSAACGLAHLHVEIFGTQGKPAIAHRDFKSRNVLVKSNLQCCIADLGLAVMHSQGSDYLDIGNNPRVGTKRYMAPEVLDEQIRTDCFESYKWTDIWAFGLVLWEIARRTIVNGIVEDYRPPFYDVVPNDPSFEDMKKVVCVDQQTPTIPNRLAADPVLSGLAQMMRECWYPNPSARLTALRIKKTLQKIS
Chain of ALK2 FOP mutant (aa172-499 R206H) (Q04771 172-499 R206H): as the sequence (Q04771 172-499) above, with R35H counted along it

As for `CC(C)n1cc(-c2cncc(-c3ccc4c(c3)CS(=O)(=O)N4CC3CCC3)c2)ccc1=O` [Example 51, 5′-(1-(cyclobutylmethyl)-2,2-dioxido-1,3-dihydrobenzo[c]isothiazol-5-yl)-1-isopropyl-[3,3′-bipyridin]-6(1H)-one], the half-inhibitory concentration (IC50) in experiment [1] is 0.16 µM; against ALK3 (aa198-525) it was 0.88 µM; in experiment [2] it was 0.16 µM; in experiment [3], 0.15 µM; against ALK1 (aa166-493) it was 0.78 µM; on ALK5 (aa162-503), 2.7 µM. At ALK6 (aa168-495), this compound yielded an IC50 of 1.5 µM.
For the compound `CC(C)n1cc(-c2cc(-c3ccc4c(c3)CC(=O)N4C)cnc2N)ccc1=O` [Example 42, 5-(2-amino-1′-isopropyl-6′-oxo-1′,6′-dihydro-[3,3′-bipyridin]-5-yl)-1-methylindolin-2-one], the IC50 in experiment [1] worked out at 0.46 µM; on ALK3 (aa198-525), 3.4 µM; in experiment [2], 0.19 µM; in experiment [3] it was 0.15 µM; on ALK1 (aa166-493) it was 1.4 µM; on ALK5 (aa162-503), 5.6 µM. For the same compound, the half-inhibitory concentration (IC50) on ALK6 (aa168-495) was determined as 3.75 µM; in experiment [4], 0.31 µM.
On to `CC(C)n1cc(-c2cncc(-c3ccc4c(c3)CC(=O)N4C)n2)ccc1=O` [Example 46, 5-(6-(1-isopropyl-6-oxo-1,6-dihydropyridin-3-yl)pyrazin-2-yl)-1-methylindolin-2-one], for which the IC50 in experiment [1] worked out at 0.15 µM; at ALK3 (aa198-525), 0.93 µM; in experiment [2], 0.12 µM; in experiment [3], 0.11 µM; against ALK1 (aa166-493), 0.62 µM; against ALK5 (aa162-503) it was 5 µM. The IC50 against ALK6 (aa168-495) came out at 2.5 µM; in experiment [4] it was 0.13 µM.
In the case of `CC(C)n1cc(-c2cncc(-c3ccc4c(c3)C(F)(F)C(=O)N4C)c2)ccc1=O` [Example 23, 3,3-Difluoro-5-(1′-isopropyl-6′-oxo-1′,6′-dihydro-[3,3′-bipyridin]-5-yl)-1-methylindolin-2-one], the IC50 in experiment [1] is 1.2 µM; on ALK3 (aa198-525) it was 5.8 µM; in experiment [2] it was 0.67 µM; in experiment [3], 0.87 µM; against ALK1 (aa166-493) it was 5.6 µM; against ALK5 (aa162-503) it was over 10 µM. Moreover, the results for the IC50 (against ALK6 (aa168-495); in experiment [4]) were 4.5 µM and 1.2 µM, respectively.
`COCn1cc(-c2cncc(-c3ccc4c(c3)CC(=O)N4C)c2)ccc1=O` [Example 15, 5-(1′-(methoxymethyl)-6′-oxo-1′,6′-dihydro-[3,3′-bipyridin]-5-yl)-1-methylindolin-2-one]: the IC50 in experiment [1] is 0.88 µM; against ALK3 (aa198-525) it was 9.9 µM; in experiment [2] it was 0.76 µM; in experiment [3], 0.74 µM; against ALK1 (aa166-493) it was 5.1 µM; against ALK5 (aa162-503), over 10 µM. Moreover, the 50% inhibitory concentration (IC50) was over 10 µM against ALK6 (aa168-495) and 1.5 µM in experiment [4].
For `CC(C)n1cc(-c2cncc(-c3cnc4c(c3)CC(=O)N4)c2)ccc1=O` [Example 41, 5-(1′-Isopropyl-6′-oxo-1′,6′-dihydro-[3,3′-bipyridin]-5-yl)-1H-pyrrolo[2,3-b]pyridin-2(3H)-one], the IC50 in experiment [1] was 0.49 µM; against ALK3 (aa198-525) it was 6.3 µM; in experiment [2] it was 0.47 µM; in experiment [3], 0.71 µM; at ALK1 (aa166-493), 6.4 µM; against ALK5 (aa162-503), over 10 µM. The 50% inhibitory concentration (IC50) on ALK6 (aa168-495) was over 10 µM; in experiment [4], 0.63 µM.
Take `CC(C)N1C(=O)Cc2cc(-c3cncc(-c4ccc(=O)n(C(C)C)c4)c3)ccc21` [Example 21, 1-Isopropyl-5-(1′-isopropyl-6′-oxo-1′,6′-dihydro-[3,3′-bipyridin]-5-yl)indolin-2-one]: the concentration for half-maximal inhibition (IC50) came to 0.064 µM in experiment [1]; 0.57 µM against ALK3 (aa198-525); 0.06 µM in experiment [2]; 0.053 µM in experiment [3]; 0.36 µM against ALK1 (aa166-493); 1.8 µM on ALK5 (aa162-503). In addition, the half-maximal inhibitory concentration (IC50) turned out to be 0.72 µM at ALK6 (aa168-495) and 0.06 µM in experiment [4].
Turning to `CCC(CC)CN1C(=O)Cc2cc(-c3cncc(-c4ccc(=O)n(C(C)C)c4)c3)ccc21` [Example 40, 1-(2-ethylbutyl)-5-(1′-isopropyl-6′-oxo-1′,6′-dihydro-[3,3′-bipyridin]-5-yl)indolin-2-one], the IC50 was determined as 0.094 µM in experiment [1]; 0.8 µM against ALK3 (aa198-525); 0.1 µM in experiment [2]; 0.08 µM in experiment [3]; 0.9 µM against ALK1 (aa166-493); 4.2 µM at ALK5 (aa162-503). Also, the IC50 on ALK6 (aa168-495) amounted to 0.86 µM; in experiment [4], 0.1 µM.
For `CCN1c2ccc(-c3cncc(-c4ccc(=O)n(C(C)C)c4)c3)cc2CS1(=O)=O` [Example 49, 5′-(1-ethyl-2,2-dioxido-1,3-dihydrobenzo[c]isothiazol-5-yl)-1-isopropyl-[3,3′-bipyridin]-6(1H)-one], the IC50 in experiment [1] amounted to 0.13 µM; on ALK3 (aa198-525), 0.67 µM; in experiment [2] it was 0.14 µM; in experiment [3], 0.13 µM; on ALK1 (aa166-493), 0.57 µM; against ALK5 (aa162-503), 2.9 µM. At ALK6 (aa168-495), this compound had a half-maximal inhibitory concentration (IC50) of 1.1 µM.
Turning to `CN1C(=O)Cc2cc(-c3cncc(-c4ccc(=O)n(CCC(F)(F)F)c4)c3)ccc21` [Example 16, 1-methyl-5-(6′-oxo-1′-(3,3,3-trifluoropropyl)-1′,6′-dihydro-[3,3′-bipyridin]-5-yl)indolin-2-one], the 50% inhibitory concentration (IC50) is 1.1 µM in experiment [1]; 15 µM against ALK3 (aa198-525); 0.82 µM in experiment [2]; 0.83 µM in experiment [3]; 8.7 µM against ALK1 (aa166-493); over 10 µM against ALK5 (aa162-503). The half-maximal inhibitory concentration (IC50) at ALK6 (aa168-495) was over 10 µM; in experiment [4], 1.2 µM.
With `CC(C)n1cc(-c2cncc(-c3ccc4c(c3)CC(=O)N4CCO)c2)ccc1=O` [Example 45, 1-(2-hydroxyethyl)-5-(1′-isopropyl-6′-oxo-1′,6′-dihydro-[3,3′-bipyridin]-5-yl)indolin-2-one], the half-maximal inhibitory concentration (IC50) worked out at 0.16 µM in experiment [1]; 1.1 µM against ALK3 (aa198-525); 0.12 µM in experiment [2]; 0.1 µM in experiment [3]; 0.89 µM against ALK1 (aa166-493); 5 µM against ALK5 (aa162-503). Further, the figures for the IC50 (on ALK6 (aa168-495); in experiment [4]) were 1.25 µM and 0.21 µM, respectively.
Take `CCc1cc(-c2cncc(-c3ccc4c(c3)CC(=O)N4C)c2)cn(C(C)C)c1=O` [Example 5, 5-(5′-Ethyl-1′-isopropyl-6′-oxo-1′,6′-dihydro-[3,3′-bipyridin]-5-yl)-1-methylindolin-2-one]: the IC50 in experiment [1] turned out to be 0.14 µM; in experiment [2] it was 0.16 µM; in experiment [3], 0.13 µM; against ALK1 (aa166-493), 0.9 µM; against ALK5 (aa162-503), 0.72 µM; in experiment [4], 0.06 µM.
For `CC(C)n1cc(-c2cncc(-c3ccc4c(c3)CC(=O)N4)c2)ccc1=O` [Example 34, 5-(5-(1-Isopropyl-6-oxo-1,6-dihydropyridin-3-yl)pyridin-3-yl)indolin-2-one], the half-inhibitory concentration (IC50) in experiment [1] is 0.3 µM; in experiment [2] it was 0.18 µM; in experiment [3], 0.17 µM; on ALK1 (aa166-493), 1.1 µM; on ALK5 (aa162-503), 3.4 µM; in experiment [4], 0.19 µM.
On to `CC1C(=O)Nc2cc(-c3cncc(-c4ccc(=O)n(C(C)C)c4)c3)ccc21` (centres unmarked) [Example 33, 6-(1′-isopropyl-6′-oxo-1′,6′-dihydro-[3,3′-bipyridin]-5-yl)-3-methylindolin-2-one], for which the IC50 was 0.18 µM in experiment [1]; 0.17 µM in experiment [2]; 0.15 µM in experiment [3]; 0.76 µM on ALK1 (aa166-493); 2.7 µM at ALK5 (aa162-503); 0.33 µM in experiment [4].
